The subject of series [1] is tumor cell-induced metastases. The series is described as follows: Inhibition of tumor cell-induced metastases in C57BL/6 mice. As to conditions: i.v. daily, 25μg of SF-6,5 per mouse, after induction of metastasis. Format: in vivo.
Series [2] deals with B16-melanoma cells adhesion to FN. The series is described as follows: Inhibition of B16-melanoma cell adhesion to FN. Type of series: cell-based, murine.
Series [3] has as its target T1, platelet GPIIb-IIIa receptor (Homo sapiens, UniProt P05106+P08514).
T1 construct: Platelet concentrates were prepared from human whole blood; endogenous in cells; host or cells: human platelets in platelet rich plasma
The experiment in a line: Inhibition of ADP-induced platelet aggregation (platelet rich plasma). Type of series: cell-based. To be noted: for Inhibition of platelet aggregation, dose dependence, in words: FIG. 3; for Inhibition of platelet aggregation at fixed concentration, in words: FIG. 4, fixed sub-saturating 0.5 mM / 10μg/ml, 4 experiments. Here is the method:
To investigate the inhibitory role of the RGD analogues on adhesion, the platelet GPIIb-IIIa receptor which mediates platelet aggregation upon activation was used as a model.
Platelet concentrates were prepared from human whole blood in 10% adenine-citrate-dextrose in Fenwall bags (Baxter Travenol, Israel) followed by standard AABB protocol. Platelet rich plasma was prepared by centrifugation (2500 rpm for 5 min). Samples of platelets were counted in a Minos AST Cell Counter (Levoiselle, France). Cell aggregation was induced by […] and monitored at […] in a 4-channel Aggregometer (Bio-Data, Hatboro, Pa.). To evaluate the effect of the various RGD peptides and the peptide analogues, the platelet rich plasma was pre-incubated with the various inhibitors for 10 min at 37° C. with 10μsolutions followed by the induction of aggregation.
To examine the specificity of the inhibitory effect of the RGD-analogues on platelet aggregation, the cells were treated with various peptidic (RGD and GRGDSP) and non-peptidic (SF-6,6, SF-6,5 and AC-15) RGD analogues used at a fixed sub-saturating concentration of 0.5 mM.
An in vitro assay as described in Example 17 was carried out with the compound NS-11 to examine its ability to interfere with platelet aggregation, and compared it to the SF-6,5 surrogate.
Platelet rich plasma (PRP) was prepared from acid/citrate/dextrose anti-coagulated fresh human blood by differential centrifugation. Platelet aggregation was induced by […] and monitored at 695 nm by a 4-channel Aggregometer (Bio-Data, PA). To evaluate the effect of the RGDS peptide and the NS-8, NS-11 and NS-15 analogs, the PRP was preincubated with the inhibitors for 10 minutes at 37° C., prior to the induction of aggregation. […] In fact, 50% inhibition of platelet aggregation was achieved using a 30-fold lower concentration of NS-11 than that of RGDS.

A further series has as its system trypsin. The series is described as follows: Treatment with trypsin (HPLC monitoring of hydrolysis). Type of series: in vitro ADME. To be noted: 0.25% trypsin, 37° C., HPLC at 220 nm, aliquots 5, 30, 60 min. Here is the method:
Compound SF-6,5 and the GRGDS peptide (50 μg in 100 μl PBS) were incubated at 37° C. and exposed to 0.25% trypsin (Gibco; 50μl in modified Puck's buffer). Aliquots were taken after 5, 30 and 60 min and monitored by HPLC at 220 nm.

Series [4] relates to B16-melanoma cells adhesion to VN. The series is described as follows: Inhibition of B16-melanoma cell adhesion to VN. As to conditions: for % inhibition of adhesion of B16-melanoma cells to VN / % Adhesion of B16-melanoma cells to VN: surrogates 0.2 mM; for % inhibition of adhesion of B16-melanoma cells to VN: * P<0.05; for % Adhesion of B16-melanoma cells to VN: none 68 ± 5. Type of series: cell-based, murine. Here is the method:
(§1) To examine the adhesive properties of tumor cells, 1 μg/50μ/well of FN or 0.3μg/well of VN were added to 96-flat bottom microtiter wells for 12 h. Unbound proteins were then washed away and remaining binding sites were blocked with 0.1% BSA added to the wells for 2 h and washed. Murine B16-melanoma F-1 cells were metabolically labeled with ^35 S-methionine (New England Nuclear) for 2 h, chased for 18 h and extensively washed. The cell suspension was resuspened in RPMI supplemented with 1% BSA containing 1 mM CaCl2 and MgCl2. Tumor cell adhesion to control wells or to wells coated with BSA was always 2-5%. The tested non-peptidic surrogates, 0.2 mM in PBS, were used to pretreat the tumor cells for 15 min before seeding the cells *, P<0.05.
(§2) In a first series of experiments, the potential inhibitory action of the RGD surrogate SF-6,5 on adhesion of B16 melanoma cells to FN or VN was compared to that of the RGE surrogate SF-6,6 and to that of RGD, GRGDSPK and GRGESP peptides.

The subject of series [5] is B16-melanoma cells adhesion to FN. The experiment in a line: Inhibition of B16-melanoma cell adhesion to FN. Type of series: cell-based, murine. As to conditions: for B-16 melanoma cell adhesion to FN, in words: Table 2A; for % inhibition of adhesion of B16-melanoma cells to FN / % Adhesion of B16-melanoma cells to FN: surrogates 0.2 mM; for % inhibition of adhesion of B16-melanoma cells to FN: * P<0.05; for % Adhesion of B16-melanoma cells to FN: none 75 ± 5. Here is the method:
as §1, §2
In a further set of experiments, the inhibitory activity of the RGD surrogates SF-6,5 and NS-11 on the adhesion of B16 murine melanoma cells to FN was compared to that of the GRGDSP peptide.

“Also recorded” adds a separate entry of the source.

For orientation: inhibition means the change of the read-out against control, counted positive when it falls. Usually IC50 stands for the point on the concentration scale where inhibition reaches its midpoint. Lower therefore signals greater potency. Consider `N=C(N)NCCCCCC(=O)NCCCCC(=O)O` [SF-6,5, 6-aza-7-oxo-12-quanidino-dodecanoic acid], for which the “Inhibition of tumor cell-induced metastases” value in series [1] is reported as “inhibition of tumor cell-induced metastases”. The “% Adhesion of activated tumor cells to FN: (% inhibition)” value (shortened to “% Adhesion … (% inhibition)”) in series [2] (Conc. 25 μg. ml) is given as 10%. For the same compound, the “% Adhesion … (% inhibition)” value in series [2] (Conc. 50 μg. ml) amounted to 20%. Further, in series [2] (Conc. 100 μg. ml), the “% Adhesion … (% inhibition)” value amounted to 30%. Further, the “% Adhesion … (% inhibition)” value in series [2] (Conc. 200 μg. ml) is 45%. Moreover, in series [3] (0.1 mM, ADP-induced, read-out: Percent inhibition of aggregation), the inhibition at 100 µM turned out to be 25%. For the same compound, the inhibition at 300 µM in series [3] (0.3 mM, ADP-induced, read-out: Percent inhibition of aggregation) came out at 55%. Moreover, in series [3], the “Inhibition of platelet aggregation, dose dependence, in words” value is “found to inhibit the aggregation of platelet rich plasma in a dose-dependent fashion” and the “Inhibition of platelet aggregation at fixed concentration, in words” value (from here on “Inhibition … at fixed concentration, in words”) was “even higher than that of the GRGDSPK peptide”. The half-inhibitory concentration (IC50) in series [3] (FIG. 3, ADP-induced) is 300 µM. Further, the “Inhibition of platelet aggregation, in words” value in series [3] (Table 3) is “mild, though significant effect on aggregation”. Besides, the Stability to trypsin result in the series on trypsin is listed as “intact after 60 min; also recorded: completely resistant to trypsin-induced hydrolysis”. Besides, in series [4] (Table 2A), the “B-16 melanoma cell adhesion to VN, in words” value was “inhibited tumor cell adhesion to both FN and VN”. In series [4], the “% inhibition of adhesion of B16-melanoma cells to VN” value (from here on “% inhibition of adhesion … to VN”) stood at 42% and the “% Adhesion of B16-melanoma cells to VN” value worked out at 40 ± 5%. Besides, in series [5], the “B-16 melanoma cell adhesion to FN, in words” value was “inhibited tumor cell adhesion to both FN and VN”; the “% inhibition of adhesion of B16-melanoma cells to FN” value (“% inhibition of adhesion … to FN” for short) came out at 55%; the “% Adhesion of B16-melanoma cells to FN” value is reported as 34 ± 4%.

For `N=C(N)NCCCCCC(=O)NCCCCCC(=O)O` [SF-6,6], the “Inhibition of tumor cell-induced metastases” value in series [1] is reported as “failed to inhibit metastases”. For the same compound, in series [3], the “Inhibition of platelet aggregation, dose dependence, in words” value was “but not SF-6,6, was found to inhibit the aggregation of platelet rich plasma” and the “Inhibition … at fixed concentration, in words” value is given as “very limited inhibitory effect on platelet aggregation”. In addition, in series [4], the “% inhibition of adhesion … to VN” value was found to be 0% and the “% Adhesion of B16-melanoma cells to VN” value was 70 ± 7%. In series [5], the “% inhibition of adhesion … to FN” value is recorded as 0% and the “% Adhesion of B16-melanoma cells to FN” value is reported as 75 ± 9%.

As for GRGDSPK [RGD peptide (Sigma)], the “Inhibition … at fixed concentration, in words” value in series [3] is reported as “marked inhibitory effect on platelet aggregation”. Besides, in series [4], the “% inhibition of adhesion … to VN” value is listed as 86% and the “% Adhesion of B16-melanoma cells to VN” value is listed as 10 ± 2%. In series [5], the “B-16 melanoma cell adhesion to FN, in words” value is on record as “found to be inhibited by the GRGDSPK peptide”; the “% inhibition of adhesion … to FN” value was 80%; the “% Adhesion of B16-melanoma cells to FN” value was 15 ± 4%.

The values above are taken from patent publication US5352667A, “Non-peptidic surrogates of the Arg-Gly-Asp sequence and pharmaceutical compositions comprising them” (priority 1991, dated 1994).
